Measurements as given in paper PMC9536713, “Synthesis and Preclinical Evaluation of ^177Lu-Labeled Radiohybrid PSMA Ligands for Endoradiotherapy of Prostate Cancer” (Journal of Nuclear Medicine, 2022).
Like-named read-outs stand apart in the source and are kept apart here.

Assays:
PSMA = biological target: T1, PSMA (Homo sapiens, UniProt Q04609); experiment: Competitive binding (IC50) on LNCaP cells against ([125I]IBA)KuE
T1 construct: endogenous in cells; host or cells: LNCaP cells
Description: (§1) Competitive binding studies were determined on LNCaP cells (1.5 × 10^5 cells in 0.25 mL/well) after incubation at 4°C for 1 h, using (((S)-1-carboxy-5-(4-([^125I]iodo)benzamido)pentyl)carbamoyl)-L-glutamic acid ([^125I]IBA)KuE; 0.2 nM/well) as the reference radioligand (n = 3). Internalization studies of the radiolabeled ligands (1.0 nM/well) were performed on LNCaP cells (1.25 × 10^5 cells in 0.25 mL/well) at 37°C for 1 h and accompanied by ([^125I]IBA)KuE (0.2 nM/well) as a reference. Data were corrected for nonspecific binding and normalized to the specific internalization observed for the reference (n = 3), as previously published ([8]).

PSMA (LNCaP cells) = biological target: T2, PSMA (LNCaP cells) (Homo sapiens, UniProt Q04609); experiment: PSMA-mediated internalization into LNCaP cells; assay type: cell-based; details: 1 h, 37°C, 1.0 nM/well, n = 3
T2 construct: endogenous in cells; host or cells: LNCaP cells
T2 sequence (Q04609 whole entry): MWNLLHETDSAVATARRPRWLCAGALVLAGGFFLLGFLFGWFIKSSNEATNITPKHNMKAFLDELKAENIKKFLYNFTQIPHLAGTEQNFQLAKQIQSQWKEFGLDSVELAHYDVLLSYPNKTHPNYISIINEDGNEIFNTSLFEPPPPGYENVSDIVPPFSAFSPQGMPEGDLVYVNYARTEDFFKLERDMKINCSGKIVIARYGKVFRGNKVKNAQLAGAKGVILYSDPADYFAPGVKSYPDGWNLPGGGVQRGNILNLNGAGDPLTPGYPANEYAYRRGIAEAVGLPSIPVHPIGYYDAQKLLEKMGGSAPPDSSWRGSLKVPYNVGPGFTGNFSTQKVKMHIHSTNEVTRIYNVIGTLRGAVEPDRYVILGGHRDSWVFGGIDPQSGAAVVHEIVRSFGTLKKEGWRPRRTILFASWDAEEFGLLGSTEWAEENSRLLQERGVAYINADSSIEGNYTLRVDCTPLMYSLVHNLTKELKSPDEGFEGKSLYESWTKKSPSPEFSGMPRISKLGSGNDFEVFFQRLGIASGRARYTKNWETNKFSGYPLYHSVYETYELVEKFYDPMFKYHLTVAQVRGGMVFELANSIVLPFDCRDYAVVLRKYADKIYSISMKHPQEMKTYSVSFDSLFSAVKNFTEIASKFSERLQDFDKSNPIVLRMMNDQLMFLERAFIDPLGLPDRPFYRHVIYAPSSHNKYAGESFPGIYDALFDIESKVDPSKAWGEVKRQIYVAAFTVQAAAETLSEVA
Description: as §1

LNCaP tumor xenografts [1] = tested on: LNCaP tumor xenografts; design: method as in PMID 30136051; details: 24 h after injection, cited from earlier work
[2] = design: method as in PMID 34531260; details: patients; cited from earlier work
[3] = biological target: T3, human serum albumin (HSA) (Homo sapiens, UniProt P02768); experiment: Binding to HSA by albumin-mediated size-exclusion chromatography (AMSEC), apparent molecular weight; assay type: in vitro ADME; details: HSA buffer at physiologic concentration as mobile phase, room temperature, window 2.1-70.2 kDa
T3 construct: purchased Biowest
T3 sequence (P02768 25-609): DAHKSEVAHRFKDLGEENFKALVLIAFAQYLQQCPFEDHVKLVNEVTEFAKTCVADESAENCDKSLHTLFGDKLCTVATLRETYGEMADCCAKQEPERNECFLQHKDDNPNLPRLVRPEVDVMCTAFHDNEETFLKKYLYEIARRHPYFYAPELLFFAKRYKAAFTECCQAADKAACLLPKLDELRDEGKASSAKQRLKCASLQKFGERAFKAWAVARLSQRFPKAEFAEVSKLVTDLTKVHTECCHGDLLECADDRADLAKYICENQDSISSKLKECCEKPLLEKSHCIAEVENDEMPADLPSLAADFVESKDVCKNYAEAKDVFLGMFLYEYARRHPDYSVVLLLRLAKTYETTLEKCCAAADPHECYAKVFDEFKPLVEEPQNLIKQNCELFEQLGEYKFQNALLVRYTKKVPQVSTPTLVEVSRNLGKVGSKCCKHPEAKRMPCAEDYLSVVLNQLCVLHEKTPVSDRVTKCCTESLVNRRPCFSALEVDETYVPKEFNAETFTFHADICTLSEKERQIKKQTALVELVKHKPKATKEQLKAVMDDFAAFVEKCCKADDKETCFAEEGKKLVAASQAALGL
Description: Binding of ^177Lu-labeled ligands to HSA was assessed by albumin-mediated size-exclusion chromatography (AMSEC), a novel method that has recently been developed by our group to determine the apparent molecular weight (AMW) of a compound in the presence of HSA. A dedicated and detailed description of the AMSEC method will be published elsewhere to cover the context and the development process of this method in its entirety. Briefly, a gel filtration size-exclusion column (Superdex 75 Increase 10/300 GL; fractionation range, 70–3 kDa; GE Healthcare) was calibrated as recommended by the manufacturer using a commercially available set of proteins (Gel Filtration LMW Calibration Kit; GE Healthcare). AMSEC experiments were performed by injection of the various radioligands using an HSA buffer at physiologic concentration (Biowest) as the mobile phase at room temperature. Depending on the strength of the HSA/ligand interaction during the chromatographic procedure, an injected radioligand (1.0 MBq, 10–20 GBq/μmol) can show a reduced retention time that correlates to AMWs higher than the actual, physical, molecular weight (the latter being for all investigated ligands < 2 kDa, and thus below the column fractionation range). The stronger this interaction, the longer the mean time the ligand is bound to HSA during the chromatographic process and the faster the ligand is eluted from the column. By means of calibration, the retention time can be translated into a ligand-specific AMW (expressed in kDa) as a parameter allowing quantification of the extent of HSA binding. The detection window ranges between 2.1 kDa (cutoff value, determined by [^18F]fluoride; no HSA interaction) and 70.2 kDa (experimental molecular weight of HSA; maximum HSA interaction). [^177Lu]Lu-rhPSMA-7.3 served as an internal standard during AMSEC studies (30.4 ± 0.5 kDa; n = 10).

[4] = patients; cited from earlier work
[5] = design: method as in earlier work; details: patients; cited from earlier work
[6] = Lipophilicity, n-octanol/phosphate-buffered saline distribution (log D7.4); assay type: physicochemical; details: pH 7.4, n = 6
Description: Approximately 1 MBq of the ^177Lu-labeled PSMA ligand was dissolved in 1 mL of a 1:1 mixture (v/v) of phosphate-buffered saline (pH 7.4) and n-octanol (n = 6). After vigorous mixing of the suspension for 3 min, the vial was centrifuged at 15,000g for 3 min, and 100-μL aliquots of both layers were measured in a γ-counter. Finally, the ratio of the radioactivity detected in the n-octanol sample and the phosphate-buffered saline buffer was calculated and expressed as distribution ratio log D7.4.

LNCaP tumor xenografts [7] = experiment: Biodistribution and small-animal SPECT/CT in LNCaP tumor-bearing mice, 24 h after injection; assay type: in vivo, male CB-17 SCID mice
Description: All animal experiments were conducted in accordance with general animal welfare regulations in Germany (German animal protection act, as amended on May 18, 2018, article 141 G, version March 29, 2017, I 626, approval 55.2-1-54-2532-71-13) and the institutional guidelines for the care and use of animals. LNCaP tumor xenografts were established in 6- to 8-wk-old male CB-17 SCID mice as described previously ([8]).
The ^177Lu-labeled PSMA ligands (2–5 MBq; 0.1 nmol) were injected under isoflurane anesthesia into the tail vein of mice, which were euthanized 24 h after injection (n = 4–5). Selected organs were removed, weighed, and measured in a γ-counter. All rhPSMA ligands were evaluated during the same period (first quarter of 2020), whereas ^177Lu-labeled PSMA-617 and PSMA I&T ([17]) were assessed in 2016, using the identical cell line, mouse model, and experimental procedure.
Static images of ^177Lu-labeled ligands in euthanized mice were recorded 24 h after injection directly after blood collection, with an acquisition time of 45 min using a high-energy, general-purpose rat-and-mouse collimator and a stepwise multiplanar bed movement. For imaging studies, a VECTor4 small-animal SPECT/PET/optical imaging/CT device from MILabs was applied. Data were reconstructed using MILabs.Rec software (version 10.02) and PMOD software (version 4.0; PMOD Technologies LLC). After imaging, the mice underwent biodistribution studies.

[8] = LNCaP tumor-bearing SCID mice, identical conditions
[9] = LNCaP tumor-bearing mice, from previously published data
[10] = 24 h after injection, LNCaP tumor-bearing SCID mice, mean ± SD, n = 4-5
[11] = 24 h after injection, LNCaP tumor-bearing mice
[12] = male, CB-17 SCID, mouse, in vivo, 24 h

T1 sequence (Q04609 whole entry): as the sequence (Q04609 whole entry) above

## O=C([O-])CC[C@H](NC(=O)N[C@@H](CCCCNC(=O)CCCCCCC(=O)NCCCC[C@@H](NC(=O)[C@@H](Cc1ccccc1)NC(=O)[C@@H](Cc1ccc(O)c(I)c1)NC(=O)CC[C@H](C(=O)[O-])N1CCN(CC(=O)[O-])CCN(CC(=O)[O-])CCN(CC(=O)[O-])CC1)C(=O)[O-])C(=O)[O-])C(=O)[O-].[177Lu+3].[H+].[H+].[H+].[H+].[H+] [[^177Lu]Lu-PSMA I&T]
PSMA; LNCaP cells, 1 h, 4°C, ([125I]IBA)KuE 0.2 nM/well as reference radioligand, n = 3, read-out: PSMA binding affinity (half-maximal inhibitory concentration)
  IC50: 4.2 ± 0.8 nM
PSMA (LNCaP cells)
  PSMA-mediated internalization as percentage of reference ligand ([125I]IBA)KuE: 145% ± 14%
LNCaP tumor xenografts [1]; [8]
  kidney uptake: 34.7 ± 17.2 %ID/g
  tumor uptake: 4.1 ± 1.1 %ID/g
LNCaP tumor xenografts [1]; [9]
  tumor-to-blood ratio: 408
  tumor-to-kidney ratio: 0.2
[2]
  effective dose (tumor): 2.6 ± 2.4 mGy/MBq
[3]
  apparent molecular weight (AMW): 5.3 kDa
[4]
  absorbed dose to the kidney: 0.7 ± 0.2 Gy/GBq

## CC(C)(C)[Si]([18F])(c1ccc(C(=O)NC[C@@H](NC(=O)CC[C@@H](C(=O)O)N2CCN(CC(=O)[O-])CCN(CC(=O)[O-])CCN(CC(=O)[O-])CC2)C(=O)N[C@H](CCCCNC(=O)CCC(=O)NCCC[C@@H](NC(=O)CC[C@H](NC(=O)N[C@@H](CCC(=O)O)C(=O)O)C(=O)O)C(=O)O)C(=O)O)cc1)C(C)(C)C.[Ga+3] [[^18F]Ga-rhPSMA-7.3]
[5]
  fold higher tumor uptake than diastereomeric mixture [18F]Ga-rhPSMA-7: 1.6 fold
  fold lower excretion into the bladder than diastereomeric mixture [18F]Ga-rhPSMA-7: 5 fold
  fold lower kidney uptake than diastereomeric mixture [18F]Ga-rhPSMA-7: 1.6 fold

## CC(C)(C)[Si](F)(c1ccc(C(=O)NC[C@@H](NC(=O)CN2CCN(CC(=O)[O-])CCN(CC(=O)[O-])CCN(CC(=O)[O-])CC2)C(=O)N[C@H](CCCCNC(=O)CCC(=O)NCCC[C@@H](NC(=O)CC[C@H](NC(=O)N[C@@H](CCC(=O)O)C(=O)O)C(=O)O)C(=O)O)C(=O)O)cc1)C(C)(C)C.[177Lu+3] [[^177Lu]Lu-rhPSMA-10.1]
[3]
  apparent molecular weight (AMW): 25.1 kDa
[6]
  log D7.4: −3.8
LNCaP tumor xenografts [7]; 24 h after injection
  kidney uptake as percentage of that of [177Lu]Lu-rhPSMA-7.3: 20%
  tumor-to-blood ratio, times higher than for [177Lu]Lu-PSMA-617: 8 times
  tumor-to-blood ratio, times higher than for [177Lu]Lu-rhPSMA-7.3: 3 times
LNCaP tumor xenografts [7]; [10]
  kidney uptake: 2.0 ± 0.8 %ID/g
  tumor uptake: 9.8 ± 0.3 %ID/g
LNCaP tumor xenografts [7]; [11]
  tumor-to-blood ratio: 11,498
  tumor-to-kidney ratio: 5.7
LNCaP tumor xenografts [7]; single mouse of SPECT/CT image, 24 h after injection, from subsequent biodistribution
  tracer uptake in tumor of the imaged mouse: 9.4 %ID/g

## O=C(O)CC[C@H](NC(=O)N[C@@H](CCCCNC(=O)[C@H](Cc1ccc2ccccc2c1)NC(=O)[C@H]1CC[C@H](CNC(=O)CN2CCN(CC(=O)O)CCN(CC(=O)O)CCN(CC(=O)O)CC2)CC1)C(=O)O)C(=O)O [[^177Lu]Lu-PSMA-617, metal not drawn]
PSMA
  IC50: 3.3 ± 0.2 nM
PSMA (LNCaP cells)
  PSMA-mediated internalization as percentage of reference ligand ([125I]IBA)KuE: 203% ± 10%
[3]
  apparent molecular weight (AMW): 13.7 kDa
LNCaP tumor xenografts [7]; [11]
  tumor-to-kidney ratio: 5.9
LNCaP tumor xenografts [7]; [12]
  kidney uptake: 1.4 ± 0.4 %ID/g
  tumor uptake: 7.5 ± 0.9 %ID/g
  tumor-to-blood ratio: 1,424
